Results taken from patent US20260042764A1, “COMPOSITIONS AND METHODS FOR INHIBITION OF KRAS” (TheRas, Inc., priority 2022, published 2026).

Legend:
[1] = target: T1, Avi-KRAS G12D (1-169) GppNHp/RAF1 RBD-3xFLAG (52-151) (Homo sapiens, UniProt P01116, G12D); experiment: Raf1-KRAS G12D-GppNHP disruption HTRF assay (Biological Example 1); assay type: binding
T1 construct: Avi-KRAS G12D (1-169)
Procedure, shortened: (§1)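 Read-out is HTRF signal of the KRAS–RAF1 RBD complex, reported as percentage of activity relative to DMSO (100%). Protein mix and detection reagents each incubated 1 h at room temperature with 700 rpm shaking. Buffer: 50 mM Tris pH 7.5, 100 mM NaCl, 5 mM MgCl2, 0.1% BSA, 0.01% Tween, 10% DMSO.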

[2] = target: T2, Avi-KRAS G12R (1-169) GppNHp/RAF1 RBD-3xFLAG (52-151) (Homo sapiens, UniProt P01116, G12R); experiment: Raf1-KRAS G12R-GppNHP disruption HTRF assay (Biological Example 1); assay type: binding
T2 construct: Avi-KRAS G12R (1-169)
Procedure, shortened: as §1

[3] = target: T3, Avi-KRAS G12V (1-169) GppNHp/RAF1 RBD-3xFLAG (52-151) (Homo sapiens, UniProt P01116, G12V); experiment: Raf1-KRAS G12V-GppNHP disruption HTRF assay (Biological Example 1); assay type: binding
T3 construct: Avi-KRAS G12V (1-169)
Procedure, shortened: as §1

[4] = target: T4, Avi-KRAS WT (1-169) GppNHp/RAF1 RBD-3xFLAG (52-151) (Homo sapiens, UniProt P01116); experiment: Raf1-KRAS WT-GppNHP disruption HTRF assay (Biological Example 1); assay type: binding
T4 construct: Avi-KRAS WT (1-169)
Procedure, shortened: as §1

[5] = system: GP2d cells (KRAS G12D); experiment: Cell-based pERK HTRF assay in GP2d cell (Biological Example 2); details: GP2d, GP2d (KRAS G12D) cells, pERK HTRF
Procedure, shortened: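 Phospho-ERK is measured by HTRF following a 60 min compound exposure at 0.25% DMSO, with a 9-point half-log curve topping at 1 μM or 100 nM.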

[6] = system: SW620 cells (KRAS G12V); experiment: Cell-based pERK HTRF assay in SW620 cell (Biological Example 4); details: Homo sapiens, SW-620, SW620 (KRAS G12V) cells, pERK HTRF
Procedure, shortened: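 SW620 seeded in RPMI/10% FBS, next day dosed 4 h (top 1 μM, half-log, 9 pts, 0.25% DMSO). Lysed, pERK by d2/Eu cryptate HTRF, 4–24 h RT, 615 nm read.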

[7] = KRAS G12D, GppNHp-loaded, class symbols
[8] = KRAS G12R, GppNHp-loaded, class symbols
[9] = KRAS G12V, GppNHp-loaded, class symbols
[10] = KRAS WT, GppNHp-loaded, class symbols

T3 sequence (P01116 1-169 isoform P01116-2 G12V): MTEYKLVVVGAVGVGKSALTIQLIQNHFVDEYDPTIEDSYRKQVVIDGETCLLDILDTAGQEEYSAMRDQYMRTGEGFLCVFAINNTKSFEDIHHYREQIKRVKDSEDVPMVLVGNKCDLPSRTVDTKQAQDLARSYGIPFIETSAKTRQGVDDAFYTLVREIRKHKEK
T4 sequence (P01116 1-169 isoform P01116-2): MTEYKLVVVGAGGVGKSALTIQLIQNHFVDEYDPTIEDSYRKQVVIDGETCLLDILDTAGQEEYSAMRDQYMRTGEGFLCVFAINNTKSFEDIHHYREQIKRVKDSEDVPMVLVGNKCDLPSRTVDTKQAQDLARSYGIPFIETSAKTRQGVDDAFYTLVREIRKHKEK
T2 sequence (P01116 1-169 isoform P01116-2 G12R): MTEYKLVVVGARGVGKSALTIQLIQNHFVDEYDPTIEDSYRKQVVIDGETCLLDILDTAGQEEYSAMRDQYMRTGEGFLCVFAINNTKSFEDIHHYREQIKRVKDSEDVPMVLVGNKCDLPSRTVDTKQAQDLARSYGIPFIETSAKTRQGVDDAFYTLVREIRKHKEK
T1 sequence (P01116 1-169 isoform P01116-2 G12D): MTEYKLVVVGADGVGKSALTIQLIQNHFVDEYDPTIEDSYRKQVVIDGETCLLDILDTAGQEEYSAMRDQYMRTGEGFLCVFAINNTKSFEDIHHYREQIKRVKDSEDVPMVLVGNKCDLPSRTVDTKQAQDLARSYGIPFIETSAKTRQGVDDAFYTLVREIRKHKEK

| IC50 ([1]; KRAS G12D-GppNHp/RAF1 RBD HTRF) [nM] | IC50 ([2]; KRAS G12R-GppNHp/RAF1 RBD HTRF) [nM] | IC50 ([3]; KRAS G12V-GppNHp/RAF1 RBD HTRF) [nM] | IC50 ([4]; KRAS WT-GppNHp/RAF1 RBD HTRF) [nM] | IC50 [5] [nM] | IC50 [6] [nM] | IC50 [1, 7] [nM] | IC50 [2, 8] [nM] | IC50 [3, 9] [nM] | IC50 [4, 10] [nM] | IC50 ([5]; class symbols) [nM] | IC50 ([6]; class symbols) [nM] | Compound |
| --- | --- | --- | --- | --- | --- | --- | --- | --- | --- | --- | --- | --- |
| 100 to 1000 | 100 to 1000 | 100 to 1000 | 100 to 1000 | < 100 | < 100 |  |  |  |  |  |  | C[C@@H]1[C@H](N(C)c2nc(OC[C@@]34CCCN3C[C@H](F)C4)nc3c(F)c(-c4ccc(F)c5sc(N)c(C#N)c45)c(Cl)cc23)CCN1C(=O)C1CC1 [Compound 401] |
|  |  |  |  |  |  | < 100 | < 100 | 100 to 1000 | 100 to 1000 | < 100 | < 100 | CC(C)C(=O)N1CC[C@H](N(CCF)c2nc(OC[C@@]34CCCN3C[C@H](F)C4)nc3c(F)c(-c4ccc(F)c5sc(N)c(C#N)c45)c(C(F)(F)F)cc23)C1 (atropisomer, axis not shown) [Compound 814] |
| 100 to 1000 | 100 to 1000 | 1000 to 10000 | 100 to 1000 | < 100 | 100 to 1000 |  |  |  |  |  |  | N#Cc1c(N)sc2c(F)ccc(-c3c(C(F)(F)F)cc4c(N5C6CC5CS(=O)(=O)C6)nc(OC[C@@]56CCCN5C[C@H](F)C6)nc4c3F)c12 [Compound 357] |
|  |  |  |  |  |  | 100 to 1000 | 100 to 1000 | 100 to 1000 | 100 to 1000 | < 100 | < 100 | CCN(c1nc(OC[C@@]23CCCN2C[C@H](F)C3)nc2c(F)c(-c3ccc(F)c4sc(N)c(C#N)c34)c(C(F)(F)F)cc12)[C@H]1C[C@@H](COC)N(C(=O)C2CC2)C1 (atropisomer, axis not shown) [Compound 650] |
| 100 to 1000 | 100 to 1000 | 1000 to 10000 | 100 to 1000 | < 100 | < 100 |  |  |  |  |  |  | N#Cc1c(N)sc2c(F)ccc(-c3c(C(F)(F)F)cc4c(N5C[C@H]6C[C@H](O)[C@@H]5C6)nc(OC[C@@]56CCCN5C[C@H](F)C6)nc4c3F)c12 [Compound 361] |
| 100 to 1000 | 1000 to 10000 | 1000 to 10000 | 1000 to 10000 | 100 to 1000 | 100 to 1000 |  |  |  |  |  |  | N#Cc1c(N)sc2c(F)ccc(-c3c(C(F)(F)F)cc4c(N5C[C@@H]6C[C@H]5CS6(=O)=O)nc(OC[C@@]56CCCN5C[C@H](F)C6)nc4c3F)c12 [Compound 319] |
|  |  |  |  |  |  | < 100 | < 100 | < 100 | < 100 | < 100 | < 100 | CCN(c1nc(OC[C@@]23CCCN2C[C@H](F)C3)nc2c(F)c(-c3ccc(F)c4sc(N)c(C#N)c34)c(C(F)(F)F)cc12)[C@H]1CCN(C(=O)N2CCC2)C1 (atropisomer, axis not shown) [Compound 574] |
| 1000 to 10000 | 1000 to 10000 | 1000 to 10000 | 100 to 1000 | < 100 | 100 to 1000 |  |  |  |  |  |  | CC(=O)N1CCC2[C@H]1CCCN2c1nc(OC[C@@]23CCCN2C[C@H](F)C3)nc2c(F)c(-c3ccc(F)c4sc(N)c(C#N)c34)c(C(F)(F)F)cc12 (stereo partly drawn) [Compound 304] |
|  |  |  |  |  |  | < 100 | < 100 | < 100 | < 100 | < 100 | < 100 | CCN(c1nc(OC[C@@]23CCCN2C[C@H](F)C3)nc2c(F)c(-c3ccc(F)c4sc(N)c(C#N)c34)c(C(F)(F)F)cc12)[C@H]1CCN(C(=O)[C@H]2CC23CC3)C1 (atropisomer, axis not shown) [Compound 772] |
|  |  |  |  |  |  | < 100 | 100 to 1000 | 100 to 1000 | 100 to 1000 | < 100 | < 100 | CN(c1nc(OC[C@@]23CCCN2C[C@H](F)C3)nc2c(F)c(-c3ccc(F)c4sc(N)c(C#N)c34)c(C(F)(F)F)cc12)[C@H]1CCN(C(=O)[C@@H]2CC2(F)F)C1 (atropisomer, axis not shown) [Compound 785] |
|  |  |  |  |  |  | < 100 | < 100 | < 100 | < 100 | < 100 | < 100 | [2H]C([2H])([2H])C([2H])(C(=O)N1CC[C@H](N(CC)c2nc(OC[C@@]34CCCN3C[C@H](F)C4)nc3c(F)c(-c4ccc(F)c5sc(N)c(C#N)c45)c(C(F)(F)F)cc23)C1)C([2H])([2H])[2H] (atropisomer, axis not shown) [Compound 707] |
